Source: publication PMC12682947, “Identification of New KCNT1‐Epilepsy Drugs by In Silico, Cell, and Drosophila Modeling” (Annals of Neurology, 2025)
Where a name gives a salt, the structure may show the parent alone.

Molecular target: T1, R928C mutant KCNT1 channels (Homo sapiens, UniProt Q5JUK3, R909C)
T1 construct: YFP-6His; expressed in transfected cells; host or cells: HEK293T
T1 sequence (Q5JUK3 1-1235 isoform Q5JUK3-3 R928C): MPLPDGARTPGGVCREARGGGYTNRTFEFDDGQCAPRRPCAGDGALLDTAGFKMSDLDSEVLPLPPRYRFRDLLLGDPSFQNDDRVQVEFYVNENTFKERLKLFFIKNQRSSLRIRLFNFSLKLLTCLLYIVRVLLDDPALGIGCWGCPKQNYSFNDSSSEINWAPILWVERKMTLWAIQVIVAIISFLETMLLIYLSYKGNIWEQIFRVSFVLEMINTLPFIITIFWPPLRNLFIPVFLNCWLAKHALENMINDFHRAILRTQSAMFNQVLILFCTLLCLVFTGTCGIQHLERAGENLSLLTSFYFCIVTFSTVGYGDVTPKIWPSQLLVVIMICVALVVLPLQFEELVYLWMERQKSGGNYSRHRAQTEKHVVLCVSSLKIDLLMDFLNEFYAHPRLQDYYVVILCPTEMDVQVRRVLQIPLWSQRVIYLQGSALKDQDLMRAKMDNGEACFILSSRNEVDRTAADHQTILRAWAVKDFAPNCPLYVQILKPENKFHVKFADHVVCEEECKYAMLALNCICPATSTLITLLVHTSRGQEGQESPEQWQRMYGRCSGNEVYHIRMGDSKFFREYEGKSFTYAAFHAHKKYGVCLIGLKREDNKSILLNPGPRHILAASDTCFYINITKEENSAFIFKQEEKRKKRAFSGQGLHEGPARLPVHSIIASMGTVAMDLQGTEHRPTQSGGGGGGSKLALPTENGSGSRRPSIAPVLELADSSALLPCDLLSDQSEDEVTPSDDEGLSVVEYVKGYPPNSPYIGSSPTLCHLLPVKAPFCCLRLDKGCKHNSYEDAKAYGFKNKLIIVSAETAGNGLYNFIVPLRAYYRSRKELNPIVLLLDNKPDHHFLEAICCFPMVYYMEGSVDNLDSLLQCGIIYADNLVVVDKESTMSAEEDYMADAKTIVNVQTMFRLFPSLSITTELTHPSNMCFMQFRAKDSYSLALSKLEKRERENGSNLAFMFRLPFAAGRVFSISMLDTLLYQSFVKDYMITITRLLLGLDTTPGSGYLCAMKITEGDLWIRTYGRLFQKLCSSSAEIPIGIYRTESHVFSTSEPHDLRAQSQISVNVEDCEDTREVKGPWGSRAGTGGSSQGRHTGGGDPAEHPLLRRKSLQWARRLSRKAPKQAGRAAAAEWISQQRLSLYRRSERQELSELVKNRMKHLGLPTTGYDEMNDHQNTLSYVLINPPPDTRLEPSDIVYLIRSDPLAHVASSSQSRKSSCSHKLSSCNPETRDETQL
Assay: Inside-out patch clamp of HEK293T cells expressing R928C KCNT1
Type: cell-based
Conditions: inside-out patches, mean ± SEM
Procedure: The CHO cells were cultured in Dulbecco's modified Eagle's Medium (ThermoFisher, UK) supplemented with 10% (v/v) fetal bovine serum, 50 U/ml penicillin and 0.05 mg/ml streptomycin, and incubated at 37°C in 5% CO2 atmosphere. For whole cell recording of WT/Y796H KCNT1, CHO cells were transiently co‐transfected with concatemeric WT/Y796H and EYFP, as described previously.[29] For electrophysiological experiments, cells were plated onto borosilicate glass cover slips and used 2 to 4 days later. Human embryonic kidney 293T cells (HEK293T) were cultured in the same manner, but with medium supplemented with 2 mM L‐glutamine, and 1% (v/v) nonessential amino acids. For excised inside‐out recording of homomeric WT or mutant YFP‐tagged KCNT1, HEK293T cells plated on glass cover slips were transfected using Attractene Transfection Reagent (Qiagen, Germany) according to the manufacturer's instructions and used 2 to 3 days later.
Inside‐out patch clamp recordings were made at room temperature (23°C) from transiently transfected HEK293T cells, as described previously.[11] The pipette solution contained, in mM, 140 NaCl, 4 KCl, 2 CaCl2, 2 MgCl2, and 10 HEPES adjusted to pH 7.4 with NaOH. […] KCNT1 currents were recorded using 2 voltage protocols, depending on the number of active channels in the patch before drug application. Macroscopic currents (number of active channels > 15) were recorded in response to 100 ms voltage ramps between −120 and 120 mV applied every 2 seconds from a holding potential of −78 mV. […] With a lower number of active channels in the patch (3–15), current traces were recorded in response to 15‐second voltage steps to −20, 0, and 20 mV from a holding potential of −78 mV. Currents recorded at each voltage and each drug concentration were averaged over the duration of the trace and normalized to the average amplitudes of the corresponding current traces in drug‐free solution. […] Single channel data were analyzed using Ana software developed by Dr Michael Pusch (Istituto di Biofisica, Genova, Italy; http://users.ge.ibf.cnr.it/pusch/programs-mik.htm). […]

Structure (SMILES) | IC50 [nM]
CC(C)c1c(C(=O)Nc2ccccc2)c(-c2ccccc2)c(-c2ccc(F)cc2)n1CC[C@@H](O)C[C@@H](O)CC(=O)O [atorvastatin] | 1200 ± 300
Cc1c(O)cccc1C(=O)N[C@@H](CSc1ccccc1)[C@H](O)CN1C[C@H]2CCCC[C@H]2C[C@H]1C(=O)NC(C)(C)C [nelfinavir mesylate] | 8 ± 1.1
O=C(OCCN1CCN(c2cccc(C(F)(F)F)c2)CC1)c1ccccc1Nc1ccnc2cc(C(F)(F)F)ccc12 [antrafenine] | 12.3 ± 3.9
